# Assay results published in paper PMC13252604, “First Generation Proteolysis Targeting Chimeras (PROTACs) for the Treatment of Progeria” (Advanced Science, 2026).
# What was measured:
# [1] = In vivo pharmacokinetic analysis; details: mouse, i.p. 25 mg/kg
# Experimental: FIGURE 8 (A) In vivo pharmacokinetic (PK) analysis of compound 2 (mean±sem, n = 2 per time point). (B) Body weight throughout the 7‐week treatment. Mice of the indicated genotypes (mean±sem, n = 2) were treated with compound 2 or vehicle, starting at 6 weeks of age. (C) Progerin and H3K9Me3 levels in lung and liver, respectively, of mice treated for 7 weeks. Representative cropped immunoblots are shown. MW, molecular weight (in kDa) markers. […] TEXT PRINTED IN THE PICTURE: (A) no label printed: VD (L·Kg^-1): 11± 5 (Dose (D) (mg·Kg^-1): 25); Ke (h^-1): 0.9± 0.1 (Dose (D) (mg·Kg^-1): 25); t1/2 (h): […] (Dose (D) (mg·Kg^-1): 25); AUC (mg·h·L^-1): 3±1 (Dose (D) (mg·Kg^-1): 25); CL (L·Kg^-1·h^-1): 10±5 (Dose (D) (mg·Kg^-1): 25) DOUBTS OF THE COPYIST ABOUT THIS PICTURE: Panel A: the picture prints no substance label beside the pharmacokinetic table, so the label is left empty. "Cpd 2" is printed only in panel B. […]
# All scientific procedures with animals were conformed to EU Directive 2010/63 EU and Recommendation 2007/526/EC, enforced in Spanish law under Real Decreto 53/2013.
# Animal protocols were approved by the Committee of Animal Experimentation of Universidad Complutense de Madrid and the Animal Protection Area of the Comunidad Autónoma de Madrid (PROEX 114.4/24). Animal studies were carried out in LmnaG609G/G609G knock-in mice ubiquitously expressing progerin[19] and control Lmna+/+ littermates, obtained by breeding LmnaG609G/+ mice kindly donated by Prof. V. Andrés (CNIC, Spain). Mice were maintained in the animal facility of the Universidad Complutense de Madrid under specific pathogen free conditions.
# For pharmacokinetic studies, compound 2 was administered intraperitoneally and blood was collected at the selected time points post-dose (n=2-3 per time point) by cardiac puncture. Blood was allowed to clot at room temperature for 30 min and centrifuged at 4 °C for 10 min at 10000g. The supernatant was transferred to a clean polypropylene tube and stored at -80 °C until analysis. For analysis, a volume of cold acetonitrile was added to the serum. The sample was incubated in an ice bath for 10 min and centrifuged at 4 °C for 10 min at 18000g. The resulting organic layer was filtered through a polytetrafluoroethylene filter (0.2 µm, 13 mm diameter, Agilent Technologies) and 30 µL of the sample analyzed by liquid chromatography coupled to mass spectrometry multiple reaction monitoring at the UCM’s Mass Spectrometry CAI. Separation was performed using a Phenomenex Gemini 5 µm C18 110Å 150x2 mm column (run time 9 min; flow 0.7 mL/min; gradient: 0 min 5% B; 4-7 min 100% B; 7.5 min 5% B; Phase A: water with formic acid 0.1%; Phase B: acetonitrile). […]
# UHPLC with an oven temperature of 31.5 °C. The mass spectrometer ion optics were set in the multiple reaction monitoring mode and the transition selected for quantification […]
# For in vivo treatment, compound 2 was administrated at a concentration of 25 mg/kg diluted in sterile corn oil (Sigma-Aldrich) intraperitoneally three times per week starting at the age of 6 weeks. The same quantity of corn oil was injected to control […]
# After 7 weeks of treatment, mice were euthanized by CO2 inhalation. […] For immunoblot analysis, a portion of the corresponding tissue was homogenized, and the protein concentration was determined. Samples containing equivalent amounts of total protein were then subjected to polyacrylamide gel electrophoresis and analyzed as […]
# [2] = test system: Lmna^G609G/G609G mouse fibroblasts; test: Cellular uptake by fluorescence microscopy; assay type: cell-based; details: intrinsic fluorescence, 5 μM
# Experimental: Supporting Figure S4. Cellular internalization of compounds 2 and 9. Live progeroid
# LmnaG609G/G609G mouse fibroblasts were incubated with 5 μM of indicated compound and
# images were taken every 5 minutes in a confocal fluorescence microscopy Olympus lx83
# (lexc = 420 nm; lem = 530 nm). Shown image corresponds to 100 min incubation. Scale […]
smiles,measurement,setting,value
CC1(C)Oc2cc3oc(=O)ccc3cc2C[C@@H]1OC(=O)CCCCCNc1cccc2c1C(=O)N(C1CCC(=O)NC1=O)C2=O (stereo partly drawn) [compound 2],concentration at 1 h,"[1]; ip, serum, 1 h, read-out: levels of the compound 1 h after administration",~1500 ng/mL
same,signs of toxicity,[1],no evident signs of toxicity
same,half-life,"[1]; serum, ip, 25 mg/kg, read-out: t1/2 (half‐life) (converted)",~2 h
same,AUC,"[1]; serum, ip",3000 ± 1000 ng·h/mL
same,k el,"[1]; serum, ip, read-out: Ke (converted)",0.00025 s⁻¹
same,cellular uptake,[2],confirmed
